# In patent EP0051773A1, “Penicillins, their salts, process for their preparation and pharmaceutical compositions containing them” (Dr. Karl Thomae GmbH, priority 1980, dated 1982):
# Experiments:
# [1] = system: Serratia marcescens ATCC 13 880; assay: serial dilution test in microtiter system (bacteriostasis, MIC); assay type: cell-based; conditions: ATCC13, liquid medium, 18 to 20 h at 37°C, read-out: MHK-Werte Serr. marcesc. ATCC 13 880
# Method: (§1) Für die Untersuchungen wurde die Methode des Reihenverdünnungstestes im Mikrotitersystem angewandt. Die Prüfung der Substanzen auf Bakteriostase erfolgte in flüssigem Medium. Es wurde die Bakteriostasewirkung bei folgenden Konzentrationen untersucht.
# (§2) Es wurde ein Nährboden folgender Zusammensetzung benutzt: 10 g Pepton, 8 g Fleischextrakt-Oxoid, 3 g Natriumschlorid, 2 g sek. Natriumphosphat werden mit dest. Wasser auf 1000 ml aufgefüllt (pH 7,2-7,4). Lediglich bei der Testung gegen Streptokokken wurde 1% Glucose hinzugefügt. Das Alter der Primärkulturen betrug etwa 20 Stunden. Die Einstellung der Keimsuspension erfolgte am Photometer (nach "Eppendorf") (Reagenzglas-Durchmesser 14 mm, Filter 546 nm) anhand der Trübung einer Bariumsulfat-Vergleichssuspension, die durch eine Bariumsulfat-Aufschwemmung erzeugt wurde, welche durch die Zugabe von 3,0 ml 1%ige Bariumchloridlösung in 97 ml 1%ige Schwefelsäure entstand. Nach der Einstellung wurden Streptococcus Aronson im Verhältnis 1:15 und die übrigen Testkeime im Verhältnis 1:1500 mit einer Kochsalzlösung weiter verdünnt.
# (§3) 16 mg der jeweiligen Substanz wurden in 10 ml-Meßkolben eingewogen und mit dem Lösungsmittel bis zur Marke aufgefüllt. Die weitere Verdünnungsreihe wurde mit destilliertem Wasser oder dem jeweiligen Lösungsmittel hergestellt.
# (§4) Die Vertiefungen der Mikrotiterplatten wurden mit 0,2 ml Nährmedium, 0,01 ml der entsprechenden Substanzverdünnung und mit einem Tropfen Keimsuspension (0,01 ml) beschickt und 18 bis 20 Stunden bei 37°C bebrütet. Eine Lösungsmittelkontrolle wurde stets mitgeführt.
# (§5) Die Ablesung wurde makroskopisch vorgenommen, wobei die jeweilige Grenkonzentration (= niedrigste noch bakteriostatisch wirksame Konzentration) ermittelt wurde.
# (§6) Als Testorganismen wurden benützt: - Staphylococcus aureus SG 511, Escherichia coli ATCC 11 775, Pseudomonas aeruginosa Hamburgensis und Walter, Serratia marcescens ATCC 13 880, Klebsiella pneumoniae ATCC 10 031 und BC 6, Proteus mirabilis Hamburgensis, Proteus rettgeri BC 7 und Enterobacter cloacae ATCC 13 047.
# (§7) In der folgenden Tabelle 2 sind die ermittelten minimalen Hemmkonzentrationen (MIC) für typische Vertreter der erfindungsgemäßen Verbindungen aufgeführt, wobei sich die Ziffern auf die Penicilline der Tabelle 1 Seite 18 beziehen.
# [2] = system: Klebsiella pneumoniae ATCC 10 031; assay: as above; assay type: cell-based; conditions: ATCC10, liquid medium, 18 to 20 h at 37°C, read-out: MHK-Werte Kl. pneum. ATCC 10 031
# Method: as §1, §2, §3, §4, §5, §6, §7
# [3] = system: Staphylococcus aureus SG 511; assay: as above; assay type: cell-based; conditions: SG511, liquid medium, 18 to 20 h at 37°C, read-out: MHK-Werte Staph. aureus SG 511
# Method: as §1, §2, §3, §4, §5, §6, §7
# [4] = system: Escherichia coli ATCC 11 775; assay: as above; assay type: cell-based; conditions: ATCC11, liquid medium, 18 to 20 h at 37°C, read-out: MHK-Werte E.coli ATCC 11 755
# Method: as §1, §2, §3, §4, §5, §6, §7
# [5] = system: Proteus mirabilis Hamburgensis; assay: as above; assay type: cell-based; conditions: liquid medium, 18 to 20 h at 37°C, read-out: MHK-Werte Prot. mir. Hbg.
# Method: as §1, §2, §3, §4, §5, §6, §7
# Proteus rettgeri BC 7 = assay: as above; assay type: cell-based; conditions: Providencia rettgeri, BC7; liquid medium, 18 to 20 h at 37°C; read-out: MHK-Werte Prot. rettg. BC 7
# Method: as §1, §2, §3, §4, §5, §6, §7
# [6] = system: Pseudomonas aeruginosa Walter; assay: as above; assay type: cell-based; conditions: liquid medium, 18 to 20 h at 37°C, read-out: MHK-Werte Pseud. aerug. Walter
# Method: as §1, §2, §3, §4, §5, §6, §7
# [7] = system: Klebsiella pneumoniae BC 6; assay: as above; assay type: cell-based; conditions: BC6, liquid medium, 18 to 20 h at 37°C, read-out: MHK-Werte Kl. pneum. BC 6
# Method: as §1, §2, §3, §4, §5, §6, §7
# [8] = system: Enterobacter cloacae ATCC 13 047; assay: as above; assay type: cell-based; conditions: ATCC13, liquid medium, 18 to 20 h at 37°C, read-out: MHK-Werte Eb. cloacae 13 047
# Method: as §1, §2, §3, §4, §5, §6, §7
# [9] = system: Pseudomonas aeruginosa Hamburgensis; assay: as above; assay type: cell-based; conditions: liquid medium, 18 to 20 h at 37°C, read-out: MHK-Werte Pseud. aerug. Hbg.
# Method: as §1, §2, §3, §4, §5, §6, §7
# E.coli ATCC 11 775 = assay: experimental intraperitoneal infection in mice, ED50 (survival); assay type: in vivo, Mäuse; conditions: Escherichia coli, ATCC 11 / ATCC 1175, sc, 168 h; female NMRI mice, i.p. infection, s.c. application, treated once, 7 days observation
# Method: (§8) Eine Reihe der erfindungsgemäßen Verbindungen wurde in vivo bei experimentellen Infektionen an Mäusen untersucht. Man verwendete als pathogene Bakterien E.coli ATCC 11 775 und Pseudomonas aeruginosa Walter. Es wurde eine intraperitoneale Infektion mit 0,2 ml einer 5%igen Mucinsuspension der Bakterien gesetzt. Dies entspricht etwa 2x10^6 Keime E.coli bzw. 8x10^5 Keime Pseudomonas/Maus. Weibliche Mäuse vom Stamm NMRI wurden in Gruppen von jeweils 10 Tieren aufgeteilt, zwei Gruppen blieben unbehandelt, die restlichen Gruppen wurden mit verschiedenen Dosen der jeweiligen erfindungsgemäßen Penicilline zur Bestimmung der ED50 (Dosis, bei der 50 % der Tiere überleben) behandelt. Bei der E.coli-Infektion wurde einmal therapiert. Bei der Pseudomonas-Infektion wurde dreimal behandelt.
# (§9) Der Beobachtungszeitraum betrug in beiden Fällen 7 Tage. Die Ergebnisse dieser Teste mit repräsentativen Vertretern der erfindungsgemäßen Penicilline sind in der Tabelle 3 dargestellt.
# [10] = system: Pseudomonas aeruginosa Walter; assay: as above; assay type: in vivo, Mäuse; conditions: sc, 168 h, female NMRI mice, i.p. infection, s.c. application, treated three times, 7 days observation, read-out: ED50 Pseud. aerug. Walter
# Method: as §8, §9
Compound,MIC [1] [µg/mL],MIC [2] [µg/mL],MIC [3] [µg/mL],MIC [4] [µg/mL],MIC [5] [µg/mL],MIC (Proteus rettgeri BC 7) [µg/mL],MIC [6] [µg/mL],MIC [7] [µg/mL],MIC [8] [µg/mL],MIC [9] [µg/mL],ED50 (E.coli ATCC 11 775) [mg/kg],ED50 [10] [mg/kg]
CC1(C)S[C@@H]2[C@H](NC(=O)[C@H](NC(=O)Nc3cnc(Nc4ccc(S(N)(=O)=O)cc4)nc3O)c3ccc(O)c(Cl)c3)C(=O)N2[C@H]1C(=O)O [Verbindung 4],0.25,2,0.25,0.25,0.25,0.5,1,2,1,2,6.1,–
"CNS(=O)(=O)c1ccc(Nc2ncc(NC(=O)N[C@@H](C(=O)N[C@@H]3C(=O)N4[C@@H]3SC(C)(C)[C@@H]4C(=O)O)c3ccc(O)cc3)c(O)n2)cc1 [Verbindung 7, D-α-[3-(4-Hydroxy-2-p-methylaminosulfonylanilino-5-pyrimidinyl)-ureido]-p-hydroxy-benzylpenicillin-Natrium]",0.12,1,0.25,0.12,0.06,0.5,1,1,0.5,1,3.4,6.6
CN(C)S(=O)(=O)c1ccc(Nc2ncc(NC(=O)N[C@@H](C(=O)N[C@@H]3C(=O)N4[C@@H]3SC(C)(C)[C@@H]4C(=O)O)c3ccccc3)c(O)n2)cc1 [Verbindung 14],–,–,–,–,–,–,–,–,–,–,4.2,8.5

# Now from value to molecule, other results behind:
MIC [1] [µg/mL],MIC [2] [µg/mL],MIC [3] [µg/mL],MIC [4] [µg/mL],MIC [5] [µg/mL],MIC (Proteus rettgeri BC 7) [µg/mL],MIC [6] [µg/mL],MIC [7] [µg/mL],MIC [8] [µg/mL],MIC [9] [µg/mL],Compound,ED50 (E.coli ATCC 11 775) [mg/kg],ED50 [10] [mg/kg]
2,32,0.5,16,0.5,2,8,32,32,8,"CC1(C)S[C@@H]2[C@H](NC(=O)[C@H](NC(=O)N3CCNC3=O)c3ccccc3)C(=O)N2[C@H]1C(=O)O [A, 6-{D-α'-[(2-Oxo-imidazolidin-1-yl)-carbonylamino]-4-phenylacetamido}-penicillansäure-Natriumsalz, reference compound]",> 100,225
0.5,4,0.25,2,0.25,0.5,8,8,4,4,"CCN1CCN(C(=O)N[C@@H](C(=O)N[C@@H]2C(=O)N3[C@@H]2SC(C)(C)[C@@H]3C(=O)O)c2ccccc2)C(=O)C1=O [D, Piperacillin, reference compound]",89,186
0.12,0.5,0.12,0.12,< 0.03,0.25,1,0.5,0.5,1,"CC1(C)S[C@@H]2[C@H](NC(=O)[C@H](NC(=O)Nc3cnc(Nc4ccc(S(N)(=O)=O)cc4)nc3O)c3ccccc3)C(=O)N2[C@H]1C(=O)O [Verbindung 1, D-α-[3-(2-p-Aminosulfonylanilino-4-hydroxy-5-pyrimidinyl)-ureido]-benzylpenicillin-Natrium]",3.9,8.2
4,8,0.5,1,0.5,1,4,8,4,4,CC1(C)S[C@@H]2[C@H](NC(=O)[C@H](NC(=O)Nc3cnc(Nc4ccc(S(N)(=O)=O)cc4)nc3O)c3ccc(O)c(O)c3)C(=O)N2[C@H]1C(=O)O [Verbindung 3],3.7,10.4
